Source: patent EP1366764A1, “Method of screening for calcium receptor-active molecules” (The Brigham & Women's Hospital, Inc., priority 1993, dated 1994)
Where two headings read alike, the source gives them in different places.

Tests used:
[1] = Net positive charge of the molecule; format: physicochemical
[2] = Hypocalcemic activity in vivo (serum or whole blood ionized Ca2+, PTH) in rats
Description: Male Sprague-Dawley rates (200 g) were maintained on a low calcium diet for one week prior to receiving test substance or vehicle as control.
Rats (male, Sprague-Dawley, 250-300 g) were fed standard rat chow and fasted overnight prior to the experiment.

human parathyroid cells = assay: Measurement of [Ca2+]i (fura-2) in human parathyroid cells; format: cell-based
Description: Human parathyroid glands, obtained from patients undergoing surgical removal of parathyroid tissue for primary or uremic hyperparathyroidism (HPT), were treated similarly to bovine tissue. Glands were trimmed of excess fat and connective tissue and then minced with a fine scissors into approximate cubes of 2-3 mm. Dissociated parathyroid cells were prepared by collagenase digestion. Dissociated cells were then purified by centrifugation in Percoll buffer. The resultant parathyroid cell preparation was essentially devoid of red blood cells, adipocytes, and capillary tissue as assessed by phase contrast microscopy and Sudan black B staining. Dissociated and purified parathyroid cells were present as small clusters containing 5 to 20 cells.
The cells were then pelleted, resuspended in the same buffer lacking the ester, and incubated a further 15 min at 37°C. The cells were subsequently washed twice with PCB containing 0.5 mM CaCl2 and 0.5% BSA and maintained at room temperature (about 20°C). […] The concentration of cells in the cuvette used for fluorescence recording was 1-2 x 10^6/ml.
The fluorescence of indicator-loaded cells was measured at 37°C in a spectrofluorimeter (Biomedical Instrumentation Group, University of Pennsylvania, Philadelphia, PA) equipped with a thermostated cuvette holder-and magnetic stirrer using excitation and emission wavelengths of 340 and 510 nm, respectively. […]

rMTC 6-23 cells = assay: Measurement of cytosolic Ca2+ in C-cells (fura-2); format: cell-based, rat; conditions: for EC50: read-out: EC50 (C-CELL)
rat osteoclasts = assay: Measurement of [Ca2+]i in single rat osteoclasts (indo-1); format: cell-based; conditions: for EC50: Osteoclast
[3] = Serum ionized Ca2+ in the 5/6 nephrectomized rat (model of secondary hyperparathyroidism); format: in vivo, rats; conditions: 10 mg/kg i.p.
Description: An accepted and widely used animal model of secondary hyperparathyroidism arising from chronic renal failure is the 5/6 nephrectomized rat. Animals receiving such surgery become initially hypocalcemic and, to maintain serum Ca^2+ levels, there is a compensatory hyperplasia of the parathyroid glands and elevated levels of circulating PTH. Male Sprague-Dawley rats (250 g) received a 5/6 nephrectomy and were allowed to recover for 2 weeks. At this time they were normocalcemic (due to elevated levels of serum PTH).

[4] = Serum ionized Ca2+ in parathyroidectomized rats; format: in vivo
Description: To determine the primary target tissue upon which NPS 467 acts to cause a hypocalcemic response, the para thyroid glands in rats were surgically removed.

Ca^2+ receptor = molecular target: T1, Ca^2+ receptor (Homo sapiens, UniProt P41180); assay: Cl- current in Xenopus oocytes injected with human parathyroid cell mRNA; format: cell-based; conditions: oocytes injected with mRNA from human parathyroid cells
T1 construct: Oocytes were injected with poly(A)^+-enriched mRNA from human parathyroid tissue; expressed in transfected cells; host or cells: Xenopus laevis oocytes injected with poly(A)+ mRNA from human hyperplastic parathyroid glands (secondary HPT)
T1 sequence (P41180 20-1078): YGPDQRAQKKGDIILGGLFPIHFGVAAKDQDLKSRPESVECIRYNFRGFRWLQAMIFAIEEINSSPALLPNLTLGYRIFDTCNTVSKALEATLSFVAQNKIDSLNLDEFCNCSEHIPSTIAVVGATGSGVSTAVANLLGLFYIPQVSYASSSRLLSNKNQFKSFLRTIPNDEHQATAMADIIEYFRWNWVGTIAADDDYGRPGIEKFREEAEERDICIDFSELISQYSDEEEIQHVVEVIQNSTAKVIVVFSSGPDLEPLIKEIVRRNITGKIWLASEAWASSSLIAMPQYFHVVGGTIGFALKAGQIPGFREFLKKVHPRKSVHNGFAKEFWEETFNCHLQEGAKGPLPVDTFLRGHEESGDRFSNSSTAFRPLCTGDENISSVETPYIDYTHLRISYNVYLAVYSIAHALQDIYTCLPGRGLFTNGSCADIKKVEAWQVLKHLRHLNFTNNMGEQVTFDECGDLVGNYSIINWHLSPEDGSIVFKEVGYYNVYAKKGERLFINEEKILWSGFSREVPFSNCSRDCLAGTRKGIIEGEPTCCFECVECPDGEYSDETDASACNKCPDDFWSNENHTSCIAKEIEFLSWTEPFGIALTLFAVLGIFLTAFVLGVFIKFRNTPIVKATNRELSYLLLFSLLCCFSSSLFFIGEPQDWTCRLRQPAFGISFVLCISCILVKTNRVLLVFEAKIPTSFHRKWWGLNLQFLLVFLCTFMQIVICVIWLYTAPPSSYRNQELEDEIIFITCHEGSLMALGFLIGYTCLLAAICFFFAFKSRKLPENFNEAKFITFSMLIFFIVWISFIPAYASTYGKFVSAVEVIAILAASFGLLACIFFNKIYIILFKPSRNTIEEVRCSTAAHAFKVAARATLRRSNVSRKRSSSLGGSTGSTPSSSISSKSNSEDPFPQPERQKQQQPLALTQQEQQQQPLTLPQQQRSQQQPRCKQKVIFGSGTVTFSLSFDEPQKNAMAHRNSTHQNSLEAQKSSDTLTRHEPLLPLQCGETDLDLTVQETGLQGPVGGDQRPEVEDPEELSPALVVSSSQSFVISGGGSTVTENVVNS

[5] = rMTC 6-23 cells, fura-2, "inactive" = no increase in cytosolic Ca2+ at 1 mM or 1-5 mM (footnote)
[6] = rat osteoclasts, indo-1, "inactive" = no increase in cytosolic Ca2+ at 1 mM or 1-5 mM (footnote)

For `NC(=O)C[C@H](NC(=O)Cc1c[nH]c2cccc(O)c12)C(=O)NCCCCCNCCCNCCCNC(=O)[C@@H](N)CCCN=C(N)N` [Argiotoxin-659], the “Net (+) Charge” value ([1]; at physiological pH (pH 7.3)) was “+4”.
In the case of `COc1cccc(C(C)NCCCc2ccccc2)c1` (racemic) [NPS 467], the “return of hypocalcemic effect toward control” value ([2]; 25 mg/kg (Fig. 40)) is reported as “returned toward control levels after 24 hours”, the “time of maximal hypocalcemic effect” value ([2]; 25 mg/kg (Fig. 40)) is reported as “maximal within three hours” and the “serum albumin or phosphate levels” value ([2]; any of the doses examined) is reported as “no change”. For the same compound, the “circulating levels of PTH” value ([2]; doses effective in lowering blood Ca2+, preliminary studies) was “dose-dependent reduction” and the “serum or whole blood Ca^2+” value ([2]; i.p., low calcium diet, three hours after administration) was “dose-dependent reduction”.
In the case of `NCCCNCCCCNCCCN` [spermine], the “increase in [Ca^2+]i” value (human parathyroid cells; 300 µM) is reported as “only a small increase in [Ca^2+]i”, the “effect on basal [Ca^2+]i” value (rMTC 6-23 cells; spermine 10 mM, neomycin B 5 mM) is reported as “without effect” and the “effect on the response to subsequent extracellular Ca^2+” value (rat osteoclasts; neomycin 10 mM (25 mM extracellular Ca2+), spermine 20 mM, verapamil 100 µM) is reported as “did depress the response to extracellular Ca^2+”. The “increases in [Ca^2+]i in rat osteoclasts” value (rat osteoclasts; neomycin 10 mM, spermine 10 or 20 mM) was “Neither neomycin (10 mM) nor spermine (10 or 20 mM) caused increases” and the “increase in [Ca^2+]i in osteoclasts” value (rat osteoclasts; neomycin B 1 mM, spermine 1 or 5 mM) was “failed to evoke any increase in [Ca^2+]i”.
With `CCC[C@@H]1C[C@@H](C(=O)N[C@@H]([C@H]2O[C@H](SC)[C@H](O)[C@@H](O)[C@H]2O)[C@@H](C)O)N(C)C1` [lincomycin] the “Net (+) Charge” value ([1]; at physiological pH (pH 7.3)) was “+1”.
In the case of `NCCNCCNCCN` [Triethylenetramine (TETA), triethylenetetramine], the “Net (+) Charge” value ([1]; at physiological pH (pH 7.3)) is reported as “+4”.
In the case of `NCCCCCCCCCCCCN` [1,12-diaminododecane (DADD), 1,12-diaminododecane], the “Net (+) Charge” value ([1]; at physiological pH (pH 7.3)) is reported as “+2”.
`NCCCNCCCCNCCCNCCCNCCCNC(=O)Cc1c[nH]c2ccccc12` [NPS 019] showed an EC50 (rMTC 6-23 cells; [5]) of 5 µM.
For `COc1cccc([C@@H](C)NCCCc2ccccc2)c1` (single isomer, unassigned) [NPS R-467], the EC50 (rat osteoclasts; [6]) was greater than 100 µM, the “decrease in serum ionized Ca^2+ from the control level” value ([2]; 10 mg/kg i.p., single dose, rats on normal calcium-replete diet, at maximum) was 22% and the “time serum ionized Ca^2+ remained depressed” value ([2]; 10 mg/kg i.p., normal diet) was “up to 6 hours”. For the same compound, the “time to maximal fall in serum ionized Ca^2+” value ([2]; 10 mg/kg i.p., normal diet) was no more than 1 h, the “potency in lowering serum Ca^2+ in vivo, R- versus S-isomer” value ([2]; each compound at 5 mg/kg body weight) was “more potent than the S-isomer” and the “serum levels of ionized Ca^2+ after oral dosing” value ([2]; single oral dose in corn oil by gavage, three hours, fasted rats) was “dose-dependent reduction”. For the same compound, the “time to fall in serum ionized Ca^2+” value [3] was no more than 2 h, the “serum ionized Ca^2+ levels, % of controls” value ([3]; 5/6 nephrectomized rats, 2 weeks after surgery) was 83 % of controls and the “change in serum ionized Ca^2+ levels” value ([4]; 10 mg/kg i.p., single dose, over 6 hours) was “did not cause any change”.
For `C1CNCCNCCNCCNCCNCCN1` [hexacyclen, 1,4,7,10,13,16-hexaaza-cyclooctadecane], the “concentration causing the mobilization of intracellular Ca^2+ in oocytes” value (Ca^2+ receptor) was 135 µM and the “Net (+) Charge” value ([1]; at physiological pH (pH 7.3)) was “+6”.
In the case of `NCCCN1CCCN(CCCN)CCN(CCCN)CCCN(CCCN)CC1` [NPS 383], the “Net (+) Charge” value ([1]; at physiological pH (pH 7.3)) is reported as “+8”.
In the case of `NCCCNCCCCNCCCNCCCN(O)CCCNC(=O)Cc1c[nH]c2cccc(O)c12` [NPS 015], the “EC50 (C-CELL)” value (rMTC 6-23 cells; [5]) is reported as “inactive” and the IC50 (rMTC 6-23 cells; read-out: IC50 for block of extracellular Ca^2+-induced increases in [Ca^2+]i, rMTC cells, block of the L-type voltage-sensitive Ca2+ channel) is reported as 3 µM.
For `NCCCNCCCCNCCCNCCCN(O)CCCNC(=O)Cc1c[nH]c2ccccc12` [NPS 017], the “EC50 (OSTEOCLAST)” value (rat osteoclasts; [6]) was “inactive”.
For `[H]/N=C(/N)N[C@H]1[C@H](O)[C@@H](O)[C@H](O[C@@H]2O[C@@H](C)[C@](O)(C=O)[C@H]2O[C@@H]2O[C@@H](CO)[C@H](O)[C@@H](O)[C@@H]2NC)[C@@H](N/C(N)=N\[H])[C@@H]1O` [streptomycin], the “Net (+) Charge” value ([1]; at physiological pH (pH 7.3)) was “+3”.
In the case of gentamicin, the “Net (+) Charge” value ([1]; at physiological pH (pH 7.3)) is reported as “+5”.
In the case of “N^1,N^1,N^5,N^14,N^14-tetrakis-(3-aminopropyl)spermine [NPS 382]”, the “concentration causing the mobilization of intracellular Ca^2+ in oocytes” value (Ca^2+ receptor) is reported as 5000 µM and the “Net (+) Charge” value ([1]; pH 7.3) is reported as “+8”.
With `NCCCN(CCCN)CCCN(CCCN)CCCCN(CCCN)CCCN(CCCN)CCCN` [NPS 381, N^1,N^1,N^5,N^10,N^14,N^14-hexakis-(3-aminopropyl) spermine] the “Net (+) Charge” value ([1]; at physiological pH (pH 7.3)) was “+10”.
Work on `COc1cccc([C@@H](C)NCCCc2ccccc2Cl)c1` [NPS R-568] yielded an EC50 (human parathyroid cells; read-out: EC50 for the mobilization of intracellular Ca^2+ / increase in [Ca^2+]i, human parathyroid cells (adenoma)) of 3 µM, an EC50 (rMTC 6-23 cells; Rattus norvegicus, rMTC 6-23 cells, fura-2, "inactive" = no increase in cytosolic Ca2+ at 1 mM or 1-5 mM (footnote)) greater than 300 µM and an EC50 (rat osteoclasts; [6]) of 200 µM. The ED50 ([2]; Rattus norvegicus, read-out: ED50 for decrease in the levels of serum Ca^2+, oral administration to rats) was 7 mg/kg and the “hypocalcemic response in parathyroidectomized rats” value ([4]; oral administration) was “fails to elicit a hypocalcemic response”.
In the case of `NC[C@H]1O[C@H](O[C@H]2[C@H](O)[C@@H](O[C@H]3O[C@H](CO)[C@@H](O)[C@H](N)[C@H]3O)[C@H](N)C[C@@H]2N)[C@H](N)[C@@H](O)[C@@H]1O` [bekanamycin], the “Net (+) Charge” value ([1]; at physiological pH (pH 7.3)) is reported as “+5”.
In the case of `NCCNCCNCCNCCN` [Tetraethylenepentamine (TEPA), Tetraethylenepentamine], the “Net (+) Charge” value ([1]; at physiological pH (pH 7.3)) is reported as “+5”.
With `COc1ccc(CCN(C)CCCC(C#N)(c2ccc(OC)c(OC)c2)C(C)C)cc1OC` (stereo not drawn) [verapamil] the “increase in [Ca^2+]i” value (rat osteoclasts; 100 µM) was “caused no detectable increase in [Ca^2+]i”.
In the case of `NCCCCNCCCN` [spermidine], the “increase in [Ca^2+]i, % of that evoked by a maximal concentration of extracellular Ca^2+” value (rat osteoclasts; 1 mM) is reported as “about 10%” and the “Net (+) Charge” value ([1]; at physiological pH (pH 7.3)) is reported as “+3”.
